US10098975B2, “Labeled pkg-1-alpha-binding compounds and their use in imaging and quantifying pain” (THE TRUSTEES OF COLUMBIA UNIVERSITY IN THE CITY OF NEW YORK, priority 2013, dated 2018)

Tests used:
models of chronic pain = assay: Rat models of chronic pain (mechanical allodynia, thermal hyperalgesia); format: in vivo; conditions: injected into rats, FIG. 6
Source text: (§1) Evaluation of neuroma pain was made possible with the advent of a novel protocol in rats whereby the end of a transected tibial nerve is transposed and then anchored just beneath the skin of the ankle. This allows the allodynia from the neuroma to be evaluated by systematically applying pressure to the overlying skin and observing whether the rat raises the leg.

PKG1alpha(h) = molecular target: T1, PKG1alpha(h) (Homo sapiens, UniProt Q13976); assay: Kinase panel (287 kinases, optimal ATP): PKG1alpha(h); format: biochemical; conditions: assayed in 287 kinases at their optimal ATP concentrations
T1 sequence (Q13976 1-671): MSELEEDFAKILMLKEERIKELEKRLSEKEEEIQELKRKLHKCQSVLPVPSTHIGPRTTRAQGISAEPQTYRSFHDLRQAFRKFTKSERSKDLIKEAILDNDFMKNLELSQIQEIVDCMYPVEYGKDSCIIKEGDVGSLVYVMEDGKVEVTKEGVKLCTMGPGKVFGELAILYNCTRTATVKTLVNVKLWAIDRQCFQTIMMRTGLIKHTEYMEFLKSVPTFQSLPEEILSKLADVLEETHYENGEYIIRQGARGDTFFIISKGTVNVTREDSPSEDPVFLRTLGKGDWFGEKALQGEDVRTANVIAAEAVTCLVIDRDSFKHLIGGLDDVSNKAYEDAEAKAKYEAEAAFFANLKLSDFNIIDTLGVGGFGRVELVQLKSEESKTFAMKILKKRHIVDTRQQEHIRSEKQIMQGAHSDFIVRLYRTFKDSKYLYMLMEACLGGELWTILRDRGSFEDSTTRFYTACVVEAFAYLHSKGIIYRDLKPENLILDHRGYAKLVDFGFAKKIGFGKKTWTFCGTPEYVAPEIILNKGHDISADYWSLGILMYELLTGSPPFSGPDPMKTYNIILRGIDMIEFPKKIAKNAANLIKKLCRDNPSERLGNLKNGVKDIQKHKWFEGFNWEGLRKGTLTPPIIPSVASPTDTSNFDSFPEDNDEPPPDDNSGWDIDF
Description: Its kinase inhibiting activity was assayed in 287 kinases at their optimal ATP concentrations. Members of all the kinome families were represented.

PKG = molecular target: T2, PKG (Homo sapiens, UniProt Q13976); assay: IC50 of NOP46 for PKG; format: biochemical
T2 sequence (Q13976 1-671): T1 sequence (Q13976 1-671)

neuroma pain = assay: Tibial neuroma transposition model of neuroma pain in rats; format: in vivo; conditions: transected tibial nerve transposed beneath ankle skin
Source text: as §1

[1] = Microsome preparations (metabolism); format: in vitro ADME
[2] = Stability in blood in vitro; format: in vitro ADME
Protein Kinase A (PKA) = Protein Kinase A (PKA) (Homo sapiens, UniProt P17612); assay: IC50 of NOP46 for Protein Kinase A; format: biochemical
[3] = Tissue distribution studies; format: in vivo; conditions: initial levels
[4] = Distribution to dorsal root ganglion and CNS after injection; format: in vivo
[5] = Clearance from circulation after intravenous injection; format: in vivo; conditions: following intravenous injection

With CCCOc1ccc(OC)c(F)c1C(=O)c1ccc(C(=O)N[C@@H]2CNC[C@H]2NC(=O)c2ccc3[nH]ncc3c2)cc1 [NOP46, N-((3R,4R)-4-(4-(2-fluoro-3-methoxy-6-propoxybenzoyl)benzamido)pyrrolidin-3-yl)-1H-indazole-5-carboxamide] the Mechanical allodynia (models of chronic pain) was “alleviated mechanical allodynia”, the Thermal hyperalgesia (models of chronic pain) was “alleviated” and the “Selectivity of kinase inhibition” value (PKG1alpha(h)) was “selectively inhibits activated PKG1alpha”. The IC50 (PKG) was 0.0075 µM, the “Kinetic analysis: mode of inhibition” value (PKG; with respect to the ATP site) was “non-competitive inhibitor of the ATP site” and the Neuroma pain (neuroma pain) was “alleviates neuroma pain”. The Metabolic degradation pathway [1] was “degraded by carbonyl reduction and depropylation”, the Stability in blood [2] was “stable in blood in vitro” and the IC50 (Protein Kinase A (PKA)) was 2 µM. The “Tissue level in the liver” value [3] was “high initial levels of NOP46 in the liver”, the “Entry into the central nervous system” value [4] was “does not enter the central nervous system” and the “Time to reach the DRG” value [4] was ≤ 30 min. The “Stability within the ganglion” value ([4]; dorsal root ganglion) was “at least 24 h” and the “Clearance from the circulation” value [5] was “rapidly cleared from the circulation”.
